# Reference: PubChem BioAssay (NCI)
#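 48-hour exposure; five concentrations; linearly interpolated endpoints. Abbreviation: GI50, concentration required for 50% inhibition of growth. The concentration for full growth arrest is given as TGI.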
# Key:
# Test in all cases: inhibition of tumour cell growth, NCI panel, 48 h
# SNB-75 CNS = system: SNB-75 CNS
# SK-MEL-5 melanoma = system: SK-MEL-5 melanoma
# HCC-2998 colon = system: HCC-2998 colon
# SNB-19 CNS = system: SNB-19 CNS
# SN12C renal = system: SN12C renal
# TK-10 renal = system: TK-10 renal
# SK-OV-3 ovarian = system: SK-OV-3 ovarian
# HT29 colon = system: HT29 colon
# DU-145 prostate = system: DU-145 prostate
# OVCAR-3 ovarian = system: OVCAR-3 ovarian
# 786-0 renal = system: 786-0 renal
# MCF7 breast = system: MCF7 breast
# RXF 393 renal = system: RXF 393 renal
# CCRF-CEM leukemia = system: CCRF-CEM leukemia
# IGROV1 ovarian = system: IGROV1 ovarian
# UO-31 renal = system: UO-31 renal
# PC-3 prostate = system: PC-3 prostate
# M14 melanoma = system: M14 melanoma
# MOLT-4 leukemia = system: MOLT-4 leukemia
# NCI-H522 lung = system: NCI-H522 lung
# A498 renal = system: A498 renal
# MDA-MB-435 = system: MDA-MB-435
# NCI-H460 lung = system: NCI-H460 lung
# NCI-H23 lung = system: NCI-H23 lung
# NCI/ADR-RES ovarian = system: NCI/ADR-RES ovarian
# MALME-3M melanoma = system: MALME-3M melanoma
# SF-539 CNS = system: SF-539 CNS
# NCI-H226 lung = system: NCI-H226 lung
# OVCAR-8 ovarian = system: OVCAR-8 ovarian
# MDA-MB-231 breast = system: MDA-MB-231 breast
# HOP-62 NSCLC = system: HOP-62 NSCLC
# OVCAR-5 ovarian = system: OVCAR-5 ovarian
# HCT-15 colon = system: HCT-15 colon
# SK-MEL-2 melanoma = system: SK-MEL-2 melanoma
# OVCAR-4 ovarian = system: OVCAR-4 ovarian
# KM12 colon = system: KM12 colon
# SW-620 colon = system: SW-620 colon
# A549 NSCLC = system: A549 NSCLC
# CAKI-1 renal = system: CAKI-1 renal
# T-47D breast = system: T-47D breast
# ACHN renal = system: ACHN renal
# RPMI-8226 leukemia = system: RPMI-8226 leukemia
# HOP-92 NSCLC = system: HOP-92 NSCLC
# K-562 leukemia = system: K-562 leukemia
# COLO 205 colon = system: COLO 205 colon
# HS 578T breast = system: HS 578T breast
# SK-MEL-28 melanoma = system: SK-MEL-28 melanoma
# LOX IMVI melanoma = system: LOX IMVI melanoma
# BT-549 breast = system: BT-549 breast
# HCT-116 colon = system: HCT-116 colon
# SF-268 CNS = system: SF-268 CNS
# SR leukemia = system: SR leukemia
# UACC-62 melanoma = system: UACC-62 melanoma
smiles,measurement,setting,value
Cc1ccc2cc3c(cc(C)c4ccccc43)c3c2c1CC3,GI50,SNB-75 CNS,26.7 µM
same,TGI,SNB-75 CNS,> 100 µM
same,GI50,SK-MEL-5 melanoma,> 100 µM
same,TGI,SK-MEL-5 melanoma,> 100 µM
same,GI50,HCC-2998 colon,> 100 µM
same,TGI,HCC-2998 colon,> 100 µM
same,GI50,SNB-19 CNS,> 100 µM
same,TGI,SNB-19 CNS,> 100 µM
same,GI50,SN12C renal,> 100 µM
same,TGI,SN12C renal,> 100 µM
same,GI50,TK-10 renal,65.6 µM
same,TGI,TK-10 renal,> 100 µM
same,GI50,SK-OV-3 ovarian,> 100 µM
same,TGI,SK-OV-3 ovarian,> 100 µM
same,GI50,HT29 colon,> 100 µM
same,TGI,HT29 colon,> 100 µM
same,GI50,DU-145 prostate,> 100 µM
same,TGI,DU-145 prostate,> 100 µM
same,GI50,OVCAR-3 ovarian,> 100 µM
same,TGI,OVCAR-3 ovarian,> 100 µM
same,GI50,786-0 renal,> 100 µM
same,TGI,786-0 renal,> 100 µM
same,GI50,MCF7 breast,35.2 µM
same,TGI,MCF7 breast,> 100 µM
same,GI50,RXF 393 renal,57.2 µM
same,TGI,RXF 393 renal,> 100 µM
same,GI50,CCRF-CEM leukemia,> 100 µM
same,TGI,CCRF-CEM leukemia,> 100 µM
same,GI50,IGROV1 ovarian,> 100 µM
same,TGI,IGROV1 ovarian,> 100 µM
same,GI50,UO-31 renal,> 100 µM
same,TGI,UO-31 renal,> 100 µM
same,GI50,PC-3 prostate,> 100 µM
same,TGI,PC-3 prostate,> 100 µM
same,GI50,M14 melanoma,> 100 µM
same,TGI,M14 melanoma,> 100 µM
same,GI50,MOLT-4 leukemia,> 100 µM
same,TGI,MOLT-4 leukemia,> 100 µM
same,GI50,NCI-H522 lung,> 100 µM
same,TGI,NCI-H522 lung,> 100 µM
same,GI50,A498 renal,76 µM
same,TGI,A498 renal,> 100 µM
same,GI50,MDA-MB-435,> 100 µM
same,TGI,MDA-MB-435,> 100 µM
same,GI50,NCI-H460 lung,> 100 µM
same,TGI,NCI-H460 lung,> 100 µM
same,GI50,NCI-H23 lung,> 100 µM
same,TGI,NCI-H23 lung,> 100 µM
same,GI50,NCI/ADR-RES ovarian,> 100 µM
same,TGI,NCI/ADR-RES ovarian,> 100 µM
same,GI50,MALME-3M melanoma,> 100 µM
same,TGI,MALME-3M melanoma,> 100 µM
same,GI50,SF-539 CNS,> 100 µM
same,TGI,SF-539 CNS,> 100 µM
same,GI50,NCI-H226 lung,> 100 µM
same,TGI,NCI-H226 lung,> 100 µM
same,GI50,OVCAR-8 ovarian,> 100 µM
same,TGI,OVCAR-8 ovarian,> 100 µM
same,GI50,MDA-MB-231 breast,48.2 µM
same,TGI,MDA-MB-231 breast,> 100 µM
same,GI50,HOP-62 NSCLC,58.8 µM
same,TGI,HOP-62 NSCLC,> 100 µM
same,GI50,OVCAR-5 ovarian,> 100 µM
same,TGI,OVCAR-5 ovarian,> 100 µM
same,GI50,HCT-15 colon,> 100 µM
same,TGI,HCT-15 colon,> 100 µM
same,GI50,SK-MEL-2 melanoma,> 100 µM
same,TGI,SK-MEL-2 melanoma,> 100 µM
same,GI50,OVCAR-4 ovarian,> 100 µM
same,TGI,OVCAR-4 ovarian,> 100 µM
same,GI50,KM12 colon,> 100 µM
same,TGI,KM12 colon,> 100 µM
same,GI50,SW-620 colon,> 100 µM
same,TGI,SW-620 colon,> 100 µM
same,GI50,A549 NSCLC,> 100 µM
same,TGI,A549 NSCLC,> 100 µM
same,GI50,CAKI-1 renal,> 100 µM
same,TGI,CAKI-1 renal,> 100 µM
same,GI50,T-47D breast,> 100 µM
same,TGI,T-47D breast,> 100 µM
same,GI50,ACHN renal,60.1 µM
same,TGI,ACHN renal,> 100 µM
same,GI50,RPMI-8226 leukemia,> 100 µM
same,TGI,RPMI-8226 leukemia,> 100 µM
same,GI50,HOP-92 NSCLC,17.4 µM
same,TGI,HOP-92 NSCLC,82.3 µM
same,GI50,K-562 leukemia,> 100 µM
same,TGI,K-562 leukemia,> 100 µM
same,GI50,COLO 205 colon,> 100 µM
same,TGI,COLO 205 colon,> 100 µM
same,GI50,HS 578T breast,89.1 µM
same,TGI,HS 578T breast,> 100 µM
same,GI50,SK-MEL-28 melanoma,> 100 µM
same,TGI,SK-MEL-28 melanoma,> 100 µM
same,GI50,LOX IMVI melanoma,> 100 µM
same,TGI,LOX IMVI melanoma,> 100 µM
same,GI50,BT-549 breast,> 100 µM
same,TGI,BT-549 breast,> 100 µM
same,GI50,HCT-116 colon,> 100 µM
same,TGI,HCT-116 colon,> 100 µM
same,GI50,SF-268 CNS,> 100 µM
same,TGI,SF-268 CNS,> 100 µM
same,GI50,SR leukemia,87.5 µM
same,TGI,SR leukemia,> 100 µM
same,GI50,UACC-62 melanoma,> 100 µM
same,TGI,UACC-62 melanoma,> 100 µM
